In patent US5843966A, “Piperidine derivatives” (Glaxo Group Limited, priority 1993, dated 1998):
Where a name gives a salt, the structure may show the parent alone.

Test system: radiation-induced emesis in the ferret
Experiment: Inhibition of radiation-induced emesis in the ferret
Format: in vivo
Details: compound administered 1.5 hours prior to irradiation
Description: In this model of emesis the onset of retching and vomiting occurs approximately 20 minutes after whole body irradiation (2 Grey.ident.200 Rads). The test compound is administered (e.g. i.p, p.o., i.v., s.c) immediately after irradiation and its effect on emesis determined by comparison with appropriate controls.
Alternatively, the test compounds may be administered before irradiation or before treatment with an emetogen, for example 1.5, 3 or 6 hours before irradiation.

SMILES | inhibition of radiation-induced emesis (0.1 mg/kg s.c.) | inhibition of radiation-induced emesis (0.03 mg/kg s.c.)
COc1ccc(-n2cnnn2)cc1CN[C@H]1CCCN[C@H]1c1ccccc1 [Example 2] | inhibited radiation-induced emesis | 
COc1ccc(-n2nnnc2C(F)(F)F)cc1CN[C@H]1CCCN[C@H]1c1ccccc1 [Example 7, [2-Methoxy-5-(5-trifluoromethyl-tetrazol-1-yl)-benzyl]-(2S,3S]-2-phenyl-piperidin-3-yl)-amine dihydrochloride] |  | inhibited radiation-induced emesis
